Test results published in patent US20180282323A1, “Mesoionic imidazole derivatives as insecticides” (BAYER CROPSCIENCE AKTIENGESELLSCHAFT, priority 2015, published 2018).
Read-outs that look alike come from different tables or passages of the source.

Legend:
[1] = system: Tetranychus urticae; experiment: Tetranychus urticae spray test, OP-resistant; format: in vivo; conditions: application rate 500 g/ha, bean leaf discs, all stages, after 6 days
Procedure: Tetranychus urticae—Spray Test, OP-Resistant Solvent: 78.0 parts by weight of acetone • • 1.5 parts by weight of dimethylformamide Emulsifier: alkylaryl polyglycol ether
(§1) To produce a suitable active ingredient formulation, 1 part by weight of active ingredient is dissolved with the stated parts by weight of solvent and made up with water containing an emulsifier concentration of 1000 ppm until the desired concentration is attained. To produce further test concentrations, the formulation is diluted with emulsifier-containing water.
Discs of bean leaves (Phaseolus vulgaris) infested with all stages of the greenhouse red spider mite (Tetranychus urticae) are sprayed with an active ingredient formulation of the desired concentration.
After 6 days, the efficacy in % is determined. 100% means that all the spider mites have been killed; 0% means that no spider mites have been killed.

[2] = system: Myzus persicae; experiment: Myzus persicae spray test (bell pepper plants); format: in vivo; conditions: application rate 100 ppm, after 6 days
Procedure: Myzus persicae—Spray Test Solvent: 14 parts by weight of dimethylformamide Emulsifier: alkylaryl polyglycol ether
as §1, with “water. If the addition of ammonium salts or/and penetrants is required, these are each added in a concentration of 1000 ppm to the formulation solution.” for “water.”
Bell pepper plants (Capsicum annuum) severely infested with the green peach aphid (Myzus persicae) are treated by spraying with the active ingredient formulation in the desired concentration.
After 6 days, the kill in % is determined. 100% means that all of the aphids have been killed; 0% means that none of the aphids have been killed.

[3] = system: Myzus persicae; experiment: Myzus persicae oral test; format: in vivo; conditions: application rate 20 ppm, oral uptake through parafilm, after 5 days; for pest or weed control at 20 ppm: Myzus persicae, 120 h, read-out: efficacy
In short: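 Compound dissolved in acetone, diluted with water, then mixed into IPL41 insect medium with sugar in microtitre plates under parafilm. Mixed-population green peach aphids fed through the membrane; % mortality scored after 5 days (100% = all killed).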

[4] = log P by HPLC on reversed-phase column (EEC directive 79/831 Annex V.A8); format: physicochemical
In short: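 Determined per EEC directive 79/831 Annex V.A8 by HPLC on a reversed-phase C18 column at 43° C.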

[5] = system: Lucilia cuprina; experiment: Lucilia cuprina test; format: in vivo; conditions: application rate 100 ppm, L1 larvae, after 2 days
Procedure: Lucilia cuprina Test Solvent: dimethyl sulphoxide
(§2) To produce a suitable active ingredient formulation, 10 mg of active ingredient are mixed with 0.5 ml of dimethyl sulphoxide, and the concentrate is diluted with water to the desired concentration.
About 20 L1 larvae of the Australian sheep blowfly (Lucilia cuprina) are transferred into a test vessel containing minced horsemeat and the active ingredient formulation of the desired concentration.
After 2 days, the kill in % is determined. 100% means that all the larvae have been killed; 0% means that no larvae have been killed.

[6] = system: Ctenocephalides felis; experiment: Ctenocephalides felis in vitro contact test with adult cat fleas; format: in vivo; conditions: application rate 5 μg/cm^2, after 48 h, adult cat fleas dead or moribund
Procedure: Ctenocephalides felis—In Vitro Contact Tests with Adult Cat Fleas
For the coating of the test tubes, 9 mg of active ingredient are first dissolved in 1 ml of acetone p.a. and then diluted to the desired concentration with acetone p.a. 250 μl of the solution are distributed homogeneously on the inner walls and the base of a 25 ml test tube by turning and rocking on an orbital shaker (rocking rotation at 30 rpm for 2 h). With 900 ppm of active ingredient solution and internal surface area 44.7 cm^2, given homogeneous distribution, an area-based dose of 5 μg/cm^2 is achieved.
After the solvent has evaporated off, the tubes are populated with 5-10 adult cat fleas (Ctenocephalides felis), sealed with a perforated plastic lid and incubated in a horizontal position at room temperature and ambient humidity. After 48 h, efficacy is determined. To this end, the test tubes are stood upright and the fleas are knocked to the base of the tube. Fleas which remain motionless at the base or move in an uncoordinated manner are considered to be dead or moribund.
100% efficacy means that all the fleas were dead or moribund. 0% efficacy means that no fleas were harmed.

[7] = system: Boophilus microplus; experiment: Boophilus microplus injection test; format: in vivo; conditions: application rate 20 μg/animal, assessed after 7 days by laying of fertile eggs
Procedure: Boophilus microplus—Injection Test Solvent: dimethyl sulphoxide
To produce a suitable active ingredient formulation, 10 mg of active ingredient are mixed with 0.5 ml of solvent and the concentrate is diluted with solvent to the desired concentration.
1 μl of the active ingredient solution is injected into the abdomen of 5 engorged adult female cattle ticks (Boophilus microplus). The animals are transferred into dishes and kept in a climate-controlled room.
Efficacy is assessed after 7 days by laying of fertile eggs. Eggs which are not visibly fertile are stored in a climate-controlled cabinet until the larvae hatch after about 42 days. An efficacy of 100% means that none of the ticks has laid any fertile eggs; 0% means that all the eggs are fertile.

[8] = system: Musca domestica; experiment: Musca domestica test; format: in vivo; conditions: application rate 100 ppm, adult houseflies, after 2 days
Procedure: Musca domestica Test Solvent: dimethyl sulphoxide
as §2
Vessels containing a sponge treated with sugar solution and the active ingredient formulation of the desired concentration are populated with 10 adult houseflies (Musca domestica).
After 2 days, the kill in % is determined. 100% means that all of the flies have been killed; 0% means that none of the flies have been killed.

[9] = system: Myzus persicae; experiment: Myzus persicae spray test (Chinese cabbage leaf discs); format: in vivo; conditions: application rate 500 g/ha, after 6 days
In short: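 Active ingredient was formulated in acetone/DMF and diluted with water containing 1000 ppm emulsifier. Chinese cabbage leaf discs infested with all aphid stages were sprayed, and % kill was scored after 6 days (100% = all aphids dead).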

[10] = system: Ctenocephalides felis; experiment: Ctenocephalides felis oral test; format: in vivo; conditions: application rate 100 ppm in citrated cattle blood, after 2 days
Procedure: Ctenocephalides felis—Oral Test Solvent: dimethyl sulphoxide
For the purpose of production of a suitable active ingredient formulation, 10 mg of active ingredient are mixed with 0.5 ml of dimethyl sulphoxide. Dilution with citrated cattle blood gives the desired concentration.
About 20 unfed adult cat fleas (Ctenocephalides felis) are placed into a chamber which is closed at the top and bottom with gauze. A metal cylinder whose bottom end is closed with parafilm is placed onto the chamber. The cylinder contains the blood/active ingredient formulation, which can be imbibed by the fleas through the parafilm membrane.
After 2 days, the kill in % is determined. 100% means that all of the fleas have been killed; 0% means that none of the fleas have been killed.

[11] = system: Diabrotica balteata; experiment: Diabrotica balteata spray test; format: in vivo; conditions: application rate 160 μg/well, wheat grains with beetle larvae, after 7 days
In short: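 Compound in acetone/DMF with emulsifier water sprayed onto wheat seedlings germinated one day on agar, 5 grains per well. Each well then infested with 10-20 Diabrotica balteata larvae. Efficacy scored after 7 days: 100% = plant growth as uninfected control, 0% = no plants grown.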

[12] = HPLC on reversed-phase column (footnote a)

## O=C(CCl)c1c([O-])n(Cc2cnc(Cl)s2)c2cccc[n+]12 [Example I-1-002, 3-(Chloroacetyl)-1-[(2-chloro-1,3-thiazol-5-yl)methyl]-1H-imidazo[1,2-a]pyridin-4-ium-2-olate]
[1]
  efficacy: 90%
[2]
  efficacy (kill in %): 90%
[3]
  pest or weed control at 20 ppm: 100%
[4]
  chromatographic logP: 1.69
[4]; pH 2.7
  chromatographic logP: 1.69

## COCC(=O)c1c([O-])n(Cc2ccc(Cl)nc2)c2cccc[n+]12 [Example I-1-003]
[5]
  efficacy (kill in %): 100%
[6]
  efficacy: 100%
[7]
  efficacy: 80%
[8]
  efficacy (kill in %): 80%
[3]
  efficacy: 100%
[9]
  efficacy: 100%
[4]; [12]
  log p: 1.18
[10]
  efficacy (kill in %): 95%

## COCC(=O)c1c([O-])n(Cc2cnc(Cl)s2)c2cccc[n+]12 [Example I-1-008, 1-[(2-Chloro-1,3-thiazol-5-yl)methyl]-3-(methoxyacetyl)-1H-imidazo[1,2-a]pyridin-4-ium-2-olate]
[5]
  efficacy (kill in %): 90%
[7]
  efficacy: 100%
[8]
  efficacy (kill in %): 100%
[3]
  pest or weed control at 20 ppm: 100%
[9]
  efficacy: 100%
[11]
  efficacy: 100%
[4]
  chromatographic logP: 1.23
[4]; pH 2.7
  chromatographic logP: 1.23

## O=C(Cn1cccn1)c1c([O-])n(Cc2cnc(Cl)s2)c2cccc[n+]12 [Example I-1-009, 1-[(2-Chloro-1,3-thiazol-5-yl)methyl]-3-(1H-pyrazol-1-ylacetyl)-1H-imidazo[1,2-a]pyridin-4-ium-2-olate]
[5]
  efficacy (kill in %): 100%
[1]
  efficacy: 90%
[7]
  efficacy: 100%
[3]
  pest or weed control at 20 ppm: 100%
[9]
  efficacy: 90%
[4]; reversed-phase C18 HPLC column, pH 2.7, HPLC on reversed-phase column (footnote a), read-out: log p
  chromatographic logP: 1.47
[4]; reversed-phase C18 HPLC column, HPLC-MS, reversed-phase C18, 43° C., calibration with alkan-2-ones, read-out: log P
  chromatographic logP: 1.47

## O=C(Cn1cncn1)c1c([O-])n(Cc2cnc(Cl)s2)c2cccc[n+]12 [Example I-1-014]
[1]
  efficacy: 90%
[3]
  efficacy: 100%
[4]; [12]
  log p: 1.1

## O=C(COc1ccccc1)c1c([O-])n(Cc2cnc(Cl)s2)c2cccc[n+]12 [Example I-1-017]
[1]
  efficacy: 90%
[3]
  efficacy: 100%
[4]; [12]
  log p: 2.34

## O=C(CCl)c1c([O-])n(Cc2cncnc2)c2cccc[n+]12 [Example I-1-019]
[1]
  efficacy: 90%
[4]; [12]
  log p: 0.77

## CCOCC(=O)c1c([O-])n(Cc2cnc(Cl)s2)c2cccc[n+]12 [Example I-1-032]
[5]
  efficacy (kill in %): 90%
[6]
  efficacy: 100%
[8]
  efficacy (kill in %): 100%
[2]
  efficacy (kill in %): 100%
[3]
  efficacy: 100%
[11]
  efficacy: 100%
[4]; [12]
  log p: 1.57

## CCCOCC(=O)c1c([O-])n(Cc2cnc(Cl)s2)c2cccc[n+]12 [Example I-1-033]
[5]
  efficacy (kill in %): 90%
[6]
  efficacy: 90%
[7]
  efficacy: 80%
[8]
  efficacy (kill in %): 100%
[2]
  efficacy (kill in %): 100%
[3]
  efficacy: 100%
[11]
  efficacy: 100%
[4]; [12]
  log p: 1.92

## CSCC(=O)c1c([O-])n(Cc2cnc(Cl)s2)c2cccc[n+]12 [Example I-1-034]
[5]
  efficacy (kill in %): 100%
[7]
  efficacy: 80%
[8]
  efficacy (kill in %): 80%
[3]
  efficacy: 100%
[9]
  efficacy: 90%
[11]
  efficacy: 100%
[4]; [12]
  log p: 1.73

## O=C(NC1CC1)c1c([O-])n(Cc2cnc(Cl)s2)c2cccc[n+]12 [Example I-1-111, 1-[(2-Chloro-1,3-thiazol-5-yl)methyl]-3-(cyclopropylcarbamoyl)-1H-imidazo[1,2-a]pyridin-4-ium-2-olate]
[5]
  efficacy (kill in %): 100%
[6]
  efficacy: 100%
[8]
  efficacy (kill in %): 100%
[3]
  pest or weed control at 20 ppm: 100%
[9]
  efficacy: 100%
[11]
  efficacy: 100%
[4]
  chromatographic logP: 1.63
[4]; pH 2.7
  chromatographic logP: 1.63

## O=C(NCC(F)(F)F)c1c([O-])n(Cc2cnc(Cl)s2)c2cccc[n+]12 [Example I-1-137]
[5]
  efficacy (kill in %): 95%
[1]
  efficacy: 90%
[2]
  efficacy (kill in %): 95%
[3]
  efficacy: 100%
[11]
  efficacy: 100%
[4]; [12]
  log p: 2.08
